Where a name gives a salt, the structure may show the parent alone.

The first series in a line: in vitro. The conditions noted are these: rat, gh3-tre-luc cells, AC50 (uM) modified / 1000.
Consider `COc1ccnc(C[S+]([O-])c2nc3ccc(OC(F)F)cc3[nH]2)c1OC` (centres unmarked) [Pantoprazole sodium], for which the CC50 at 24 h was above 90 µM.
As to `COc1ccc(Cc2nccc3cc(OC)c(OC)cc23)cc1OC` [Papaverine hydrochloride], the cytotoxic concentration (CC50) at 24 h is above 20 µM.
`CC(=O)OCC(=O)[C@@]1(O)[C@H](C)C[C@H]2[C@@H]3C[C@H](F)C4=CC(=O)C=C[C@]4(C)[C@H]3[C@@H](O)C[C@@]21C` [Paramethasone acetate] came in with a CC50 at 24 h above 50 µM.
Still for that read-out and setting: with `CCC(=O)Nc1ccc(O)cc1` [Parapropamol] the figure was above 50 µM; with `CCOP(=S)(OCC)Oc1ccc([N+](=O)[O-])cc1` [Parathion], above 90 µM.
In turn, `CCOC(=O)c1ccc(N(C)C)cc1` [Parbenate] came in with a CC50 at 24 h above 90 µM.
`CCCCc1ccc2[nH]c(NC(=O)OC)nc2c1` [Parbendazole] yielded a CC50 at 24 h of 0.0667 µM.
In turn, `CCC(=O)NS(=O)(=O)c1ccc(-c2c(-c3ccccc3)noc2C)cc1` [Parecoxib sodium] showed a CC50 at 24 h above 50 µM.
Same read-out and setting: with `CCOc1ccc(C(=O)OCCN(CC)CC)cc1` [Parethoxycaine] the figure was above 50 µM; with `C#CCOC(C(=O)OCCN(C)C)(c1ccccc1)c1ccccc1` [Pargeverine hydrochloride], above 50 µM; with `C[C@H](/C=C/[C@H](C)C(C)(C)O)[C@H]1CC[C@H]2/C(=C/C=C3C[C@@H](O)C[C@H](O)C3)CCC[C@]12C` [Paricalcitol], 27 µM.
`OC(c1ccc(Cl)cc1)(c1ccc(Cl)cc1)c1cccnc1` [Parinol] yielded a half-maximal cytotoxic concentration (CC50) at 24 h of 64.3 µM.
On the same count and under the same terms, with `NC[C@@H]1O[C@H](O[C@H]2[C@@H](O)[C@H](O[C@@H]3[C@@H](O)[C@H](N)C[C@H](N)[C@H]3O[C@H]3O[C@H](CO)[C@@H](O)[C@H](O)[C@H]3N)O[C@@H]2CO)[C@H](N)[C@@H](O)[C@@H]1O` [Paromomycin sulfate] the figure was above 50 µM; with `Fc1ccc([C@@H]2CCNC[C@H]2COc2ccc3c(c2)OCO3)cc1` [Paroxetine], 10.7 µM; with `CCC(=O)c1ccc(O)cc1` [Paroxypropione], above 50 µM.
The molecule `C=C1C(=O)O[C@H]2[C@H]1CC/C(C)=C/CC[C@@]1(C)O[C@@H]21` [Parthenolide] came in with a CC50 at 24 h of 13.8 µM.
Consider `Cc1ccc(Nc2nccc(N(C)c3ccc4c(C)n(C)nc4c3)n2)cc1S(N)(=O)=O` [Pazopanib], for which the cytotoxic concentration (CC50) at 24 h was above 50 µM.
`C[C@H]1COc2c(C3(N)CC3)c(F)cc3c(=O)c(C(=O)O)cn1c23` [Pazufloxacin] returned a CC50 at 24 h above 50 µM.
On to `CCCCN(CC)C(=O)SCCC` [Pebulate], for which the CC50 at 24 h is above 90 µM.
The same measure, in the same setting: under `CN1CCCC(CN2c3ccccc3Sc3ccccc32)C1` (centres unmarked) [Pecazine] stands 16.4 µM; under `CC(C(=O)O)c1ccc(/C=C2\CCCCC2=O)cc1` (centres unmarked) [Pelubiprofen], above 50 µM.
The molecule `Nc1nc2[nH]cc(CCc3ccc(C(=O)N[C@@H](CCC(=O)O)C(=O)O)cc3)c2c(=O)[nH]1` [Pemetrexed disodium] gave a half-maximal cytotoxic concentration (CC50) at 24 h above 50 µM.
The same measure, in the same setting: under `Cc1cccn2c(=O)c(-c3nnn[nH]3)cnc12` [Pemirolast potassium] stands above 50 µM; under `CN1C(C)(C)CCCC1(C)C` [Pempidine d-tartaric acid], above 50 µM.
The same measure, in the same setting: under `CC(C)(C)NC[C@H](O)COc1ccccc1C1CCCC1` [Penbutolol sulfate] stands 11.1 µM; under `Nc1nc2c(ncn2CCC(CO)CO)c(=O)[nH]1` [Penciclovir], above 50 µM; under `CCCC(Cn1cncn1)c1ccc(Cl)cc1Cl` (centres unmarked) [Penconazole], 78.4 µM.
Consider `O=C(Nc1ccccc1)N(Cc1ccc(Cl)cc1)C1CCCC1` [Pencycuron], for which the CC50 at 24 h was 54.7 µM.
In turn, `OC1(c2ccc(Cl)c(C(F)(F)F)c2)CCN(CCCC(c2ccc(F)cc2)c2ccc(F)cc2)CC1` [Penfluridol] showed a CC50 at 24 h of 3.98 µM.
For the molecule `CCCCCC1Nc2cc(C(F)(F)F)c(S(N)(=O)=O)cc2S(=O)(=O)N1` (centres unmarked) [Penflutizide], the CC50 at 24 h is above 50 µM.
In turn, `CC1(C)S[C@@H]2[C@H](NC(=O)Cc3ccccc3)C(=O)N2[C@H]1C(=O)O` [Penicillin G potassium] had a cytotoxic concentration (CC50) at 24 h above 50 µM.
Still for that read-out and setting: under `CC1(C)S[C@@H]2[C@H](NC(=O)COc3ccccc3)C(=O)N2[C@H]1C(=O)O` [Penicillin VK] stands above 90 µM; under `COc1cnc(OC)n2nc(NS(=O)(=O)c3c(OCC(F)F)cccc3C(F)(F)F)nc12` [Penoxsulam], above 90 µM.
On to `Oc1c(Br)c(Br)c(Br)c(Br)c1Br` [Pentabromophenol], for which the midpoint of cytotoxicity, the CC50 at 24 h, lay at 33.5 µM.
The molecule `COc1c(Cl)c(Cl)c(Cl)c(Cl)c1Cl` [Pentachloroanisole] gave a CC50 at 24 h above 90 µM.
As for `Clc1cc(Cl)c(Cl)c(Cl)c1Cl` [Pentachlorobenzene], the 50% cytotoxic concentration (CC50) at 24 h is above 90 µM.
Still for that read-out and setting: under `O=[N+]([O-])c1c(Cl)c(Cl)c(Cl)c(Cl)c1Cl` [Pentachloronitrobenzene] stands above 90 µM; under `Clc1nc(Cl)c(Cl)c(Cl)c1Cl` [Pentachloropyridine], above 90 µM.
As for `CSc1c(Cl)c(Cl)c(Cl)c(Cl)c1Cl` [Pentachlorothioanisole], the 50% cytotoxic concentration (CC50) at 24 h amounted to 81.6 µM.
The molecule `O=C1CCCCCCCCCCCCCCO1` [Pentadecan-15-olide] gave a cytotoxic concentration (CC50) at 24 h above 90 µM.
In turn, `CCCCCCCCCCCCCCC` [Pentadecane] had a CC50 at 24 h above 90 µM.
The same measure, in the same setting: with `CCCCCCCCCCCCCCC(=O)O` [Pentadecanoic acid] the figure was above 90 µM.
On the same count and under the same terms, with `C=CCOCC(CO)(CO)CO` [Pentaerythritol allyl ether] the figure was above 60 µM; with `OCC(CO)(CBr)CBr` [Pentaerythritol dibromide], above 90 µM; with `C=CC(=O)OCC(COC(=O)C=C)(COC(=O)C=C)COC(=O)C=C` [Pentaerythritol tetraacrylate], 3 µM.
On the same count and under the same terms, under `OCC(CO)(CO)CO` [Pentaerythritol] stands above 100 µM.
As for `CSCC[C@H](NC(=O)[C@H](Cc1c[nH]c2ccccc12)NC(=O)CCNC(=O)OC(C)(C)C)C(=O)N[C@@H](CC(=O)O)C(=O)N[C@@H](Cc1ccccc1)C(N)=O` [Pentagastrin], the cytotoxic concentration (CC50) at 24 h is above 50 µM.
For `CCCCC[C@@H](O)[C@H]1C(=O)O[C@H](C)[C@@H](O)/C=C/C=C/C=C/C=C/C=C(\C)[C@@H](O)[C@H](O)[C@H](O)C[C@H](O)C[C@H](O)C[C@H](O)C[C@H](O)C[C@@H]1O` [Pentamycin], the 50% cytotoxic concentration (CC50) at 24 h was above 50 µM.
As to `CCCCC=O` [Pentanal], the CC50 at 24 h was above 90 µM.
On the same count and under the same terms, under `BrCCCCCBr` [Pentane,1,5-dibromo-] stands above 100 µM.
On the same count and under the same terms, under `CCC(C)(C)CC` [Pentane,3,3-dimethyl-] stands above 100 µM; under `O=C(OCCCCCOC(=O)c1ccccc1)c1ccccc1` [Pentane-1,5-diyl dibenzoate], above 90 µM.
`CCCCC` [Pentane] returned a CC50 at 24 h above 90 µM.

The series is the same for the next values; noted with them: rat, gh3-tre-luc cells, AC50 (uM) modified / 1000, Tox21_110001=Tox21_111607; viability, 1 nM T3 present, 24 h.
Molecule `CC1OC(C)OC(C)O1` (centres unmarked) [Paraldehyde] yielded a 50% cytotoxic concentration (CC50) at 24 h above 50 µM.

The same series, now with this note: rat, gh3-tre-luc cells, AC50 (uM) modified / 1000, Tox21_110001=Tox21_112509; viability, 1 nM T3 present, 24 h.
Molecule `NC1=NC(=O)C(c2ccccc2)O1` (centres unmarked) [Pemoline] returned a 50% cytotoxic concentration (CC50) at 24 h above 50 µM.

Still in this series, the particulars now being: rat, gh3-tre-luc cells, AC50 (uM) modified / 1000, Tox21_110001=Tox21_200571; viability, 1 nM T3 present, 24 h.
In the case of `BrC(Br)C(Br)(Br)Br` [Pentabromoethane], it took 24.2 µM to reach half-maximal cytotoxicity (CC50 at 24 h).

Still in this series, the particulars now being: rat, gh3-tre-luc cells, AC50 (uM) modified / 1000, Tox21_110001=Tox21_201141; viability, 1 nM T3 present, 24 h.
The molecule `ClC(Cl)C(Cl)(Cl)Cl` [Pentachloroethane] showed a CC50 at 24 h above 90 µM.

The same series, now with this note: rat, gh3-tre-luc cells, AC50 (uM) modified / 1000, Tox21_110001=Tox21_301299; viability, 1 nM T3 present, 24 h.
Molecule `CC1OC(C)OC(C)O1` (centres unmarked) [Paraldehyde] gave a CC50 at 24 h above 90 µM.

The series is the same for the next values; noted with them: rat, gh3-tre-luc cells, AC50 (uM) modified / 1000, Tox21_110001=Tox21_400021; viability, 1 nM T3 present, 24 h.
As to `Nc1c(Cl)c(Cl)c(Cl)c(Cl)c1Cl` [Pentachloroaniline], the cytotoxic concentration (CC50) at 24 h is above 90 µM.

The CC50 is the concentration that lowers cell viability or growth by half. A high value points to lower toxicity to the cells.

The record behind these values is article PMC6792352, “Limited Chemical Structural Diversity Found to Modulate Thyroid Hormone Receptor in the Tox21 Chemical Library” (Environmental Health Perspectives, 2019).
